{"source": "patent US20110236405A1", "about": "“COAGULATION FACTOR MODULATION FOR CONTROLLING TRANSPLANT ORGAN SIZE” (Tel HaShomer Medical Research Infrastructure and Services …, priority 2008, published 2011)", "molecules": {"B1": {"name": "G-CSF: recombinant human G-CSF (Neupogen, Amgen) (protein, chains of the INN, looked up)", "chain": "MTPLGPASSLPQSFLLKCLEQVRKIQGDGAALQEKLCATYKLCHPEELVLLGHSLGIPWAPLSSCPSQALQLAGCLSQLHSGLFLYQGLLQALEGISPELGPTLDTLQLDVADFATTIWQQMEELGMAPALQPTQGAMPAFASAFQRRAGGVLVASHLQSFLEVSYRVLRHLAQP"}}, "assay_type_in_all_cases": "in vivo, mouse", "key": {"[1]": {"system": "E42 pig liver precursor tissue implanted in Rag-/- mice", "assay": "Embryonic pig liver implant growth in Rag-/- mice, pig albumin serum ELISA", "protocol": "In addition, immune deficient RAG^−/− mice or RAG^−/− FVIII KO mice were used as hosts for the transplantation studies. To obtain RAG^−/− hemophilic mice (designated RAG^−/− FVIII KO mice), FVIII mutation was introduced into RAG^−/− mice, as was previously described. All mice were kept in small cages (up to five animals per cage) and fed sterile food.\nPig embryos were obtained from the Lahav Institute of Animal Research (Kibbutz Lahav, Israel). […] Warm ischemia time was less than 10 minutes and the embryos were transferred to cold PBS. Spleen, pancreas and liver precursors for transplantation were extracted under a light microscope and were kept in sterile conditions at 4° C. in RPMI 1640 (Biological Industries, Beit HaEmek, Israel) prior to transplantation. Cold ischemia time until transplantation was less than 2 hours.\nTransplantation of pig precursors was completed as previously described [Dekel, B. et al., Nat Med (2003) 9, 53-60]. Briefly, transplantation of the embryonic precursors was performed under general anesthesia (2.5% 2,2,2-Tribromoethanol, 97% in PBS, 10 ml/kg intraperitoneally). […]\nPig albumin in mouse serum was measured by a standard ELISA procedure using primary goat anti-pig albumin antibody (human, mouse, and bovine absorbed), affinity purified, and secondary pig specific horseradish-peroxidase conjugated antibody (Catalog Nos. A100-210A and A100-210P, Bethyl). […]"}, "C57BL mice": {"system": "C57BL mice", "assay": "G-CSF induced splenomegaly in C57BL and C57BL hemophilic mice", "details": "for effect on G-CSF induced splenomegaly: C57BL mice, daily treatment plus G-CSF, versus G-CSF alone; for average spleen weight: G-CSF treated", "protocol": "8 to 10 week old immune competent C57BL mice and C57BL hemophilic (C57BL Hem F8) mice were used for the G-CSF studies.\n(§1) 8-10 weeks old NOD-SCID or Factor VIII KO SCID mice were treated by daily subcutaneous injections of recombinant human G-CSF (Neupogen, Amgen) at a dose of 250 μg per kg per day for 7 days. To determine the spleen weight, 7 days after the initiation of G-CSF treatment, mice were euthanized and spleens were harvested.\nEnoxaparine (Clexane 20 mg/0.2 ml, Rhone-poulenc, France) was used at a dosage of 200 μg/mouse (dissolved in PBS) and 0.2 ml of the final solution was injected subcutaneously into each mouse once a day.\nDabigatran etexilate (Boehringer Ingelheim Pharma KG, Biberach, Germany) was administrated orally at dosage of 30 mg/kg. Final volume of 0.3 ml dissolved in DDW was administrated daily.\nThe palmitoylated peptides: pal-RCLSSSAVANRS (PAR1 antagonist, SEQ ID NO: 15) and pal-SGRRYGHALR (PAR4 antagonist, SEQ ID NO: 16) were prepared by solid-phase peptide synthesis using in situ neutralization/HBTU by Hadar Biotec, Israel.\nThe mice were treated by vehicle control, or with PAR1 antagonist or PAR4 antagonist at 0.5 mg/kg, intraperitonealy on daily basis."}, "[2]": {"system": "NOD-SCID or Factor VIII KO SCID mice", "assay": "G-CSF induced splenomegaly in NOD-SCID and Factor VIII KO SCID mice", "details": "for average spleen weight: G-CSF 250 μg per kg per day s.c. for 7 days", "protocol": "8-10 week old immune deficient NOD-SCID or factor VIII KO-SCID mice (Weizmann Institute Animal Breeding Center, Rehovot, Israel) were used for G-CSF studies. To obtain immunodeficient hemophilic mice (designated factor VIII KO-SCID), FVIII-deficient mice were crossed with SCID mice, as was previously described [Aronovich, A. et al., Proc Natl Acad Sci USA (2006) 103: 19075-80].\nas §1\nHu Factor VIII was infused into Factor VIII KO SCID mice by osmotic pumps (Azlet pump model 1003D, 1 μl/hr rate, 100 μl total capacity with a continuous delivery for 3 days). Thus, 60 IU Hu factor VIII was dissolved in 100 μl PBS and delivered by the 1003D pump for 3 days. The pump was administrated into the peritoneal cavity. After 3 days, a similar new pump was administrated. Initial concentration of the Hu Factor VIII was calibrated based on Hu Factor VIII half life and its clearance rate [Mordenti, J. et al., Toxicol Appl Pharmacol (1996) 136: 75-81]."}}, "note": "Several values for one entry are separate records, joined by “and”; a condition that tells them apart may be missing. Identical values can stand only once. Where no end group is shown, it is not given here. The star is where a group is joined. Palmitoyl = CCCCCCCCCCCCCCCC(=O)*"}
{"molecule": "CCCCCCOC(=O)NC(=N)c1ccc(NCc2nc3cc(C(=O)N(CCC(=O)OCC)c4ccccn4)ccc3n2C)cc1", "note": "[Dabigatran, Dabigatran etexilate]", "values": [{"measurement": "embryonic pig liver growth (pig albumin serum levels)", "setting": "[1]; Rag-/- mice, Dabigatran etexilate 30 mg/kg orally daily", "value": "enhancement"}, {"measurement": "effect on G-CSF induced splenomegaly", "setting": "C57BL mice", "value": "marked enhancement"}]}
{"molecule": "pal-RCLSSSAVANRS (Palmitoyl-RCLSSSAVANRS) [PAR1 antagonist, palmitoylated peptide, PAR1 antagonist]", "values": [{"measurement": "effect on G-CSF induced splenomegaly", "setting": "C57BL mice", "value": "significantly enhanced"}]}
{"molecule": "Enoxaparine [Clexane]", "values": [{"measurement": "pig albumin blood levels", "setting": "[1]; non-hemophilic recipients, days 7 and 21 post transplant, versus control recipients not receiving Clexane", "value": "marked enhancements"}, {"measurement": "effect on G-CSF induced splenomegaly", "setting": "C57BL mice", "value": "marked enhancement"}, {"measurement": "total average weight of the spleens", "setting": "C57BL mice; C57BL/6 mice, following G-CSF induction, Clexane 200 μg/mouse s.c. once a day", "value": "266 ± 91", "unit": "mg"}]}
{"molecule": "pal-SGRRYGHALR (Palmitoyl-SGRRYGHALR) [PAR4 antagonist, palmitoylated peptide, PAR4 antagonist]", "values": [{"measurement": "effect on G-CSF induced splenomegaly", "setting": "C57BL mice", "value": "significantly enhanced"}]}
{"molecule": "B1", "values": [{"measurement": "average spleen weight", "setting": "[2]; Factor VIII KO SCID mice", "value": "314.89 ± 121.51", "unit": "mg"}, {"measurement": "average spleen weight, Factor VIII KO SCID versus non-hemophilic mice", "setting": "[2]; G-CSF treated mice", "value": 2.6, "unit": "fold"}, {"measurement": "average spleen weight", "setting": "[2]; non-hemophilic NOD-SCID mice", "value": "118.5 ± 25.56", "unit": "mg"}, {"measurement": "average spleen weight", "setting": "C57BL mice; C57BL hemophilic (Hem F8, Factor VIII KO) mice", "value": "256.03 ± 149.86 mg and 261 ± 154 mg"}, {"measurement": "average spleen weight", "setting": "C57BL mice; non-hemophilic C57BL mice", "value": "181.22 ± 61.43", "unit": "mg"}]}
